According to patent US12473274B2, “Heterocyclic compound as inhibitor of casein kinase 1-δ and/or activin receptor-like kinase 5” (Alchemedicine, Inc., priority 2020, dated 2025):

Key:
Assay type in all cases: biochemical
[1] = target: T1, ALK5 (Homo sapiens, UniProt P36897); assay: Test Example 3: ALK5 inhibition action (ADP-Glo, SignalChem enzyme); design: GST; purchased SignalChem T07-11G; conditions: enzyme 5 ng/μL, TGFBR1 Peptide 200 ng/μL, ATP 25 μM, 2 hours
T1 sequence (P36897 34-503): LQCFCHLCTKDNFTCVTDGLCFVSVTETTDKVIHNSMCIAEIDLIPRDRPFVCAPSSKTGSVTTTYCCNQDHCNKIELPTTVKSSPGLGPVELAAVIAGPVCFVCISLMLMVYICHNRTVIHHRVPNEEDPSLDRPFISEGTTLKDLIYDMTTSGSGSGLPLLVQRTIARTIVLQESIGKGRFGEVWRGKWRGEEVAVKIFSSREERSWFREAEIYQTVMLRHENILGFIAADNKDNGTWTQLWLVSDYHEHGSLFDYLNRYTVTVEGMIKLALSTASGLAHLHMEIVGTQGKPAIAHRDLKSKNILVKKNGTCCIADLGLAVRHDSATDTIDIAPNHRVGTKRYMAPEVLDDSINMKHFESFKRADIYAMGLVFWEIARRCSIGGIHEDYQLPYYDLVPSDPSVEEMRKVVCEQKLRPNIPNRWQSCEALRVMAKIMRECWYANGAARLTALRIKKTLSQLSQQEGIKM
Method: (§1) Evaluation of ALK5 Inhibition Action
Using a human recombinant GST-tagged TGFB available from SignalChem (Catalog No. T07-11G), a substrate peptide TGFBR1 Peptide (Catalog No. T36-58), and ADP-Glo assay kit (Promega Corporation), measurement was performed on a 5-μL reaction system in a 384-well plate (GloMax plate reader) according to the document attached to the ADP-Glo assay kit. For the reaction conditions used, the enzyme concentration was 5 ng/μL, the substrate concentration was 200 ng/μL, the ATP concentration was 25 μM, and the reaction time was 2 hours. The IC50 value was calculated using GraphPad Prism version 5.01 based on the inhibition rate where the test substance (8 to 10 concentrations, diluted 3-fold from 3000 nM) was added.

[2] = target: T2, human recombinant GST-tagged p38α (Homo sapiens, UniProt Q16539); assay: Test Example 5: p38α inhibition action (ADP-Glo, SignalChem enzyme); conditions: enzyme 2 ng/μL, p38 Substrate 100 ng/μL, ATP 25 μM, 40 minutes
T2 construct: GST; purchased SignalChem M39-10 BG
T2 sequence (Q16539 whole entry): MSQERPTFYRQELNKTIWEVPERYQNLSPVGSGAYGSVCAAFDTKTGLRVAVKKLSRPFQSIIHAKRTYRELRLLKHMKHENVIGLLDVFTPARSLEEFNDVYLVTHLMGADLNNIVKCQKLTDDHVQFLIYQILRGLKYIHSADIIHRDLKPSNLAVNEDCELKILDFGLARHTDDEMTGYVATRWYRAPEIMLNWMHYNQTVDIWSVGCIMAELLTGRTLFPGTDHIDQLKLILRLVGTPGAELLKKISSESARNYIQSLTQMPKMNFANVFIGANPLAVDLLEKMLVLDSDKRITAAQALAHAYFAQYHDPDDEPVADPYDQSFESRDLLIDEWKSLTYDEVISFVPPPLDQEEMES
Method: Evaluation of p38α Inhibition Action
(§2) Using a human recombinant GST-tagged p38α available from SignalChem (Catalog No. M39-10 BG), a substrate peptide p38 Substrate (Catalog No. P03-58), and ADP-Glo assay kit (Promega Corporation), measurement was performed on a 5-μL reaction system in a 384-well plate (GloMax plate reader) according to the document attached to the ADP-Glo assay kit. For the reaction conditions used, the enzyme concentration was 2 ng/μL, the substrate concentration was 100 ng/μL, the ATP concentration was 25 μM, and the reaction time was 40 minutes. The IC50 value was calculated using GraphPad Prism version 5.01 based on the inhibition rate where the test substance (8 to 10 concentrations, diluted 3-fold from 3000 nM) was added.

[3] = target: T3, human recombinant GST-tagged CK1δ (Homo sapiens, UniProt P48730); assay: Test Example 4: CK1δ inhibition action (ADP-Glo, SignalChem enzyme); conditions: enzyme 2 ng/μL, Casein Dephosphorylated 200 ng/μL, ATP 25 μM, 40 minutes
T3 construct: GST; purchased SignalChem C65-10G
T3 sequence (P48730 whole entry): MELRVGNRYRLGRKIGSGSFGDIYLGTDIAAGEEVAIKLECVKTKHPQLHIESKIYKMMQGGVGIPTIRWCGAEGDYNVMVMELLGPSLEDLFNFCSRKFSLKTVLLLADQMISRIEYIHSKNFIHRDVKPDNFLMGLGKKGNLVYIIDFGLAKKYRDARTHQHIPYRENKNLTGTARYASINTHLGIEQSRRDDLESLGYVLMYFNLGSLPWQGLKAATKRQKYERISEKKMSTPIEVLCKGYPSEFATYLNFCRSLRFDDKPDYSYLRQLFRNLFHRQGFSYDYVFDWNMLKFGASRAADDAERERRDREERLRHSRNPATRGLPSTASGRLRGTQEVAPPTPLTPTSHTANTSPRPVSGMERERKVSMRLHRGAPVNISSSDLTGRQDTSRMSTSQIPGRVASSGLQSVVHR
Method: Evaluation of CK1δ Inhibition Action
as §2, with “CK1δ” for “p38α”, “C65-10G),” for “M39-10 BG),”, “Casein Dephosphorylated” for “p38 Substrate”, “C03-54BN),” for “P03-58),”, “200” for “100”

[4] = target: T4, human CK1δ (Homo sapiens, UniProt P48730); assay: Test Example 1: CK1δ inhibitory activity (mobility shift, LabChip); conditions: for IC50: CKtide 1 μM, ATP 10 μM, Mg 5 mM, 1 hour room temperature; for Ratio (p38α/CK1δ): ratio of p38α IC50 to CK1δ IC50, Test Example 1
T4 construct: GST (N); made in house; host or cells: E. coli
T4 sequence (P48730 1-294): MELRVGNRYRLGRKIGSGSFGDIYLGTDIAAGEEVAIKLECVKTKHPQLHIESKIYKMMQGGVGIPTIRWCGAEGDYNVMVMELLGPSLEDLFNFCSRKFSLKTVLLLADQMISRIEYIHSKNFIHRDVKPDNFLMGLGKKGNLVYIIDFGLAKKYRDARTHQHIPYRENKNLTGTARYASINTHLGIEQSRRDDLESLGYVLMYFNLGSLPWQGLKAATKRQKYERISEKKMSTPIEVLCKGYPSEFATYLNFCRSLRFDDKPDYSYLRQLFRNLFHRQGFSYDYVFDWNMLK
Method: (§3) Evaluation of CK1δ Inhibitory Activity and p38α Inhibition Action
(§4) 1. Preparation of Solution of Test Substance
(§5) A test substance was dissolved in dimethyl sulfoxide (DMSO). The solution was further diluted with DMSO to prepare a solution at a concentration 100-fold greater than the test concentration. The solution was further 25-fold diluted with an assay buffer to prepare a solution of the test substance. The positive control substance was also treated as above to prepare a solution of the positive control substance.
(§6) 2. Preparation of Kinase Protein
CK1δ: Used was the human CK1δ prepared by fusing GST (61 KDa) with the N-terminal of the human CK1δ enzyme activity domain (1-294 amino acid sequence site in accession number NP_001884.2), followed by expression in E. coli and then refining by a glutathione sepharose chromatography system.
(§7) 3. Reagent and Test Method
(§8) 5 μL of a 4-fold solution of the test substance prepared with an assay buffer (20 mM HEPES, 0.01% Triton X-100, 2 mM DTT, pH: 7.5), 5 μL of a 4-fold substrate/ATP/metal solution, and 10 μL of a 2-fold kinase solution were mixed in wells of a 384-well plate made of polypropylene, and were reacted at room temperature for 1 hour. 70 μL of Termination Buffer (QuickScout Screening Assist MSA; Carna Biosciences) was added to terminate the reaction. The substrate peptide and phosphorylated peptide in the reaction solution were separated by a LabChip system (Perkin Elmer), and were quantitated. The kinase reaction was evaluated based on the product ratio (P/(P+S)) calculated from the substrate peptide peak height (S) and the phosphorylated peptide peak height (P).
(§9) The average signal from control wells containing all the reaction components was defined as 0% inhibition, and the average signal from background wells (enzyme not added) was defined as 100% inhibition. The inhibition rate was calculated from the average signal of test wells containing each test substance. The IC50 value was determined through approximation of the plot against the test substance concentration and the inhibition rate to a 4-parameter logistic curve by non-linear least squares. The compounds in Examples had good CK1δ inhibition activity. A large difference was found between the CK1δ inhibition concentration and the p38α inhibition concentration.

[5] = target: T5, human p38α (Homo sapiens, UniProt Q16539); assay: Test Example 1: p38α inhibition action (mobility shift, LabChip); conditions: Modified Erktide 1 μM, ATP 150 μM, Mg 5 mM, 1 hour room temperature
T5 construct: GST (N); made in house; host or cells: E. coli
T5 sequence (Q16539 9-352): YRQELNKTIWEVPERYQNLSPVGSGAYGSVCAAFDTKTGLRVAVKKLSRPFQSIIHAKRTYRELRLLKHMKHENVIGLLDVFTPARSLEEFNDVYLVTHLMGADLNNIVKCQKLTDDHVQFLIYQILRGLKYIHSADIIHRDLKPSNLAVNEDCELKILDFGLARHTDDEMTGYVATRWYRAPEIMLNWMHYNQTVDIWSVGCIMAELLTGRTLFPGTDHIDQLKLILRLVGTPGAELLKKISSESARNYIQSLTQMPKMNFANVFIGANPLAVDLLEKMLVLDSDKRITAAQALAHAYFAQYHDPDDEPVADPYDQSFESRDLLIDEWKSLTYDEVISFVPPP
Method: as §3, §4, §5, §6
p38α: Used was the human p38α prepared as followed: GST (66 KDa) was fused with the N-terminal of the 9-352 amino acid sequence site in accession number NP_620581.1, followed by expression in E. coli and then refining by a glutathione sepharose chromatography system, and the product was activated with His-tagged MAP2K6, and was again purified by the glutathione sepharose chromatography system.
as §7, §8, §9

[6] = target: T1, ALK5; assay: Test Example 2: ALK5 inhibition action (ADP-Glo kinase assay)
Method: as §1, §4
A 10% DMSO stock solution (compound concentration: 10 mM) containing 0.1 mg/mL BSA (bovine serum albumin) was prepared as a solution of the test substance.
3. Reagent, Test Method, and Reaction Conditions
A kinase assay was performed using ADP-Glo™ assay kit available from Promega Corporation according to the following assay reaction recipe: • Component 1: 1 μL diluted active protein kinase • Component 2: 1 μL of the substrate • Component 3: 1 μL kinase assay buffer • Component 4: 1 μL of the compound (10 concentrations) or 10% DMSO • Component 5: 1 μL ATP stock (25 μM final well concentration)
The assay started with incubation of the reaction mixture in a 384-well plate at room temperature for 40 minutes. After the incubation, 5 μL ADP-Glo™ reagent was added. The plate was shaken, followed by incubation at room temperature for 40 minutes. […] The plate was measured on a GloMax plate reader using ADP-Glo™ Luminescence Protocol. […] The corrected activity value was calculated by subtracting the value of the blank control from the measured value.
The relative luminescence unit (RLU) was measured at 10 compound concentrations between 0.3 nM and 10,000 nM. The inhibition rate was calculated as follows: {(Control RLU−Test RLU)/(Control RLU−Background RLU)}×100 […]

IC50 [1] [nM] | IC50 [2] [nM] | IC50 [3] [nM] | IC50 [4] [nM] | Ratio (p38α/CK1δ) [4] | IC50 [5] [nM] | IC50 ([6]; ATP 25 μM, 40 minutes, 10 concentrations 0.3-10,000 nM) [nM] | ALK5 inhibition activity (in words) ([6]; Test Example 2, comment on Table 3) | Structure (SMILES)
330 | > 3000 | 200 |  |  |  |  |  | c1ccc(-c2[nH]c(C3CC3)nc2-c2ccc3c(c2)COC3)nc1 [Example 5, 2-(2-Cyclopropyl-4-(1,3-dihydroisobenzofuran-5-yl)-1H-imidazol-5-yl)pyridine]
 |  |  | 48 | 92 | 4400 |  |  | Fc1ccc(-c2[nH]cnc2-c2ccc3c(c2)COC3)nc1 [Example 3, 2-(4-(1,3-Dihydroisobenzofuran-5-yl)-1H-imidazol-5-yl)-5-fluoropyridine]
 |  |  | 21 | 190 | 4000 | 31 | good ALK5 inhibition activity | c1ccc(-c2[nH]cnc2-c2ccc3c(c2)COC3)nc1 [Example 1, 2-(4-(1,3-Dihydroisobenzofuran-5-yl)-1H-imidazol-5-yl)pyridine]
 |  |  | 68 | >150 | > 10000 |  |  | Cc1nc(-c2ccc3c(c2)COC3)c(-c2ccccn2)[nH]1 [Example 2, 2-(4-(1,3-Dihydroisobenzofuran-5-yl)-2-methyl-1H-imidazol-5-yl)pyridine]
46 |  |  | 110 | 47 | 5200 |  |  | Cc1cccc(-c2[nH]cnc2-c2ccc3c(c2)COC3)n1 [Example 4, 2-(4-(1,3-Dihydroisobenzofuran-5-yl)-1H-imidazol-5-yl)-6-methylpyridine]
